{
  "source": "patent US12016959B2",
  "about": "“Sustained drug release sheet for treating nerve injury” (OSAKA UNIVERSITY, priority 2016, dated 2024)",
  "key": {"[1]": {"assay": "Concentration of vitamin B12 (drug) in blood, rat sciatic nerve crush injury model", "assay_type": "in vivo", "details": "6 weeks after surgery; mean±SEM", "protocol": "The examination on the sheet that contained the present extract as a drug was carried out in the same manner.\nBlood was collected in an amount of 1 mL from the left ventricle of a rat under anesthesia 6 weeks after the surgery. The collected blood was centrifuged at 800×g for 20 minutes to collect a supernatant. The measurement of a concentration of vitamin B12 in the blood was entrusted to BML, INC. (Tokyo)."}, "[2]": {"tested_on": "rat sciatic nerve crush injury model", "assay": "Motor function, sciatic function index (SFI), rat sciatic nerve crush injury model", "assay_type": "in vivo", "details": "6 weeks after surgery; 0 = normal, −100 = impaired; untreated group −20.6±4.2; mean±SEM", "experimental": "(§1) All of animal experiments were went ahead with the approval of the Ethics Committee of the animal laboratory of Osaka University. Six-week-old male Wistar rats (body weights: about 200 g) were used. All of the surgeries were carried out while applying deep sedation with a mixed anesthetic drug composed of midazolam (2 mg/kg), butorphanol (2.5 mg/kg) and medetomidine (0.15 mg/kg). A left sciatic nerve was exposed under clean operations, and a crush injury was applied to a position 5 mm distal to a sciatic notch with a pair of forceps. The time of crushing was 10 seconds, the frequency of crushing operations was three times, and the intervals between the crushing operations was 10 seconds. The fascia and the skin were sutured together with 4-0 nylon. […] The systemic administration of methylcobalamin was performed by placing an osmotic minipump (Model 2ML2; Alzet, Cupertino, CA, USA) under the skin of the back. […]\nFor the evaluation of a motor function, a sciatic function index (SFI) was measured 6 weeks after the surgery. For the measurement of an SFI, an ink was applied to the back paw of a rat, then the rat was allowed to walk on office paper placed on a 40 cm-square horizontal table, and then foot prints of the rat were recorded. The four items mentioned below were measured to calculate an SFI. […] An SFI value was calculated in accordance with the following mathematical formula. […]"}, "[3]": {"tested_on": "rat sciatic nerve crush injury model", "assay": "Histological evaluation (axons, MBP-positive axons), rat sciatic nerve crush injury model", "assay_type": "in vivo", "details": "6 weeks after surgery, mean±SEM", "experimental": "(§2) All of animal experiments were went ahead with the approval of the Ethics Committee of the animal laboratory of Osaka University. Six-week-old male Wistar rats (body weights: about 200 g) were used. All of the surgeries were carried out while applying deep sedation with a mixed anesthetic drug composed of midazolam (2 mg/kg), butorphanol (2.5 mg/kg) and medetomidine (0.15 mg/kg). A left sciatic nerve was exposed under clean operations, and a crush injury was applied to a position 5 mm distal to a sciatic notch with a pair of forceps. The time of crushing was 10 seconds, the frequency of crushing operations was three times, and the intervals between the crushing operations was 10 seconds. The fascia and the skin were sutured together with 4-0 nylon. […] The systemic administration of methylcobalamin was performed by placing an osmotic minipump (Model 2ML2; Alzet, Cupertino, CA, USA) under the skin of the back. All of the surgeries were carried out by the same practitioner.\nEach of the rats 6 weeks after the surgery was sedated with an anesthetic drug, and a left sciatic nerve was collected therefrom and then fixed with 4% PFA for 5 days and with 20% sucrose for 24 hours and then frozen and embedded. […] The total number of axons and the ratio of myelinated axons (total number of MBP-positive axons)/(total number of axons) were evaluated."}, "Erk1/2 and Akt": {"tested_on": "Erk1/2 and Akt", "details": "through the methylation cycle; Non-Patent Document 2; cited from earlier work"}, "[4]": {"tested_on": "rat sciatic nerve injury model", "details": "continuous high-dose administration; Non-Patent Document 2; cited from earlier work"}, "[5]": {"tested_on": "rat sciatic nerve crush injury model", "assay": "Electrophysiological evaluation (CMAP, TL, NCV), rat sciatic nerve crush injury model", "assay_type": "in vivo", "details": "6 weeks after surgery, mean±SEM", "experimental": "as §2\nEach of the rats 3 or 6 weeks after the surgery was sedated with an anesthetic drug and was then placed on an operating table in a prone position. A left sciatic nerve and a left tibialis anterior muscle were exposed. Each of a compound muscle action potential (CMAP) and a terminal latency (TL) was measured while stimulating a proximal site of a sciatic nerve with a bipolar electrode. A nerve conduction velocity (NCV) was calculated from measurement values respectively obtained at a proximal site and a distal site to the sciatic nerve crush injury while stimulating the positions with a bipolar electrode. In the measurement and the evaluation, AD Instruments Power Lab 2/26, Stimulus isolator, and Bio Amp and Chart & Scope software (all manufactured by AD Instruments, Bel la Vista, NSW, Australis) were used."}, "[6]": {"tested_on": "rat sciatic nerve crush injury model", "assay": "Sensory function, von Frey filament test, rat sciatic nerve crush injury model", "assay_type": "in vivo", "details": "6 weeks after surgery; untreated group 117.8±11.7 g; mean±SEM", "experimental": "as §1\nFor the evaluation of a sensory function, a mechanical hind paw withdrawal threshold was measured 6 weeks after the surgery using a von Frey filament (0.008 to 26 g; Touch Test, North Coast Medical Inc, Gilroy, CA, USA). Each of the rats was made walk on a metallic mesh, then a pressure was applied onto the center of the sole until the filament began to bend, and then a value at which the rat evoked an escape behavior was recorded."}, "neurons": {"tested_on": "neurons", "details": "Non-Patent Document 2; cited from earlier work"}},
  "data": [
    {"compound": "C/C1=C2/[N-][C@H]([C@H](CC(N)=O)[C@@]2(C)CCC(=O)NC[C@@H](C)OP(=O)([O-])O[C@H]2[C@@H](O)[C@@H](n3cnc4cc(C)c(C)cc43)O[C@@H]2CO)[C@]2(C)N=C(/C(C)=C3N=C(/C=C4N=C1[C@@H](CCC(N)=O)C\\4(C)C)[C@@H](CCC(N)=O)[C@]\\3(C)CC(N)=O)[C@@H](CCC(N)=O)[C@]2(C)CC(N)=O.[CH3-].[Co+3]", "note": "[MeCbl pump, methylcobalamin]", "values": [
      {"measurement": "concentration of vitamin B12 in the blood", "setting": "[1]", "result": "0.01835 ± 0.00227", "unit": "µg/mL"},
      {"measurement": "sciatic function index (SFI)", "setting": "[2]", "result": "−10.5±2.0"},
      {"measurement": "ratio of myelinated axons (number of MBP-positive axons)/(total number of axons)", "setting": "[3]; untreated group 85.0±0.9%", "result": "91.5±0.6", "unit": "%"},
      {"measurement": "number of regenerated axons per sq. mm", "setting": "[3]; untreated group 2843±68/mm^2", "result": "2735±77 /mm^2"},
      {"measurement": "activities of Erk1/2 and Akt", "setting": "Erk1/2 and Akt", "result": "increase the activities of Erk1/2 and Akt"},
      {"measurement": "nerve regeneration and function recovery", "setting": "[4]", "result": "improves nerve regeneration and function recovery"},
      {"measurement": "terminal latency (TL)", "setting": "[5]; untreated group 3.45±0.08 ms", "result": "3.24 ± 0.07", "unit": "ms"},
      {"measurement": "compound muscle action potential (CMAP)", "setting": "[5]; untreated group 19.5±2.3 mV", "result": "19.5±1.5", "unit": "mV"},
      {"measurement": "nerve conduction velocity (NCV)", "setting": "[5]; untreated group 28.2±2.5 m/s", "result": "43.2±2.5", "unit": "m/s"},
      {"measurement": "von Frey filament test, mechanical hind paw withdrawal threshold", "setting": "[6]", "result": "77.8 ± 7.0", "unit": "g"},
      {"measurement": "concentration that can promote the elongation of neurites and the survival of neurons", "setting": "neurons", "result": "≥ 100", "unit": "nM"}
    ]}
  ]
}
